This passage reports IC50 and melting point results from patent publication US20090105278A1, “Selective inhibitors of human corticosteroid syntheses” (Universitat Des Saarlandes, priority 2004, published 2009).

SMILES strings stand for the structures. Where a name gives a salt, the structure may show the parent alone. Read-outs that look alike come from different tables or passages of the source.

The target in one data set is T1, human CYP11B1 (Homo sapiens, UniProt P15538).
T1 construct: expressed in transfected cells; host or cells: V79 MZh11B1 (Chinese hamster lung fibroblasts)
T1 sequence (P15538 25-503): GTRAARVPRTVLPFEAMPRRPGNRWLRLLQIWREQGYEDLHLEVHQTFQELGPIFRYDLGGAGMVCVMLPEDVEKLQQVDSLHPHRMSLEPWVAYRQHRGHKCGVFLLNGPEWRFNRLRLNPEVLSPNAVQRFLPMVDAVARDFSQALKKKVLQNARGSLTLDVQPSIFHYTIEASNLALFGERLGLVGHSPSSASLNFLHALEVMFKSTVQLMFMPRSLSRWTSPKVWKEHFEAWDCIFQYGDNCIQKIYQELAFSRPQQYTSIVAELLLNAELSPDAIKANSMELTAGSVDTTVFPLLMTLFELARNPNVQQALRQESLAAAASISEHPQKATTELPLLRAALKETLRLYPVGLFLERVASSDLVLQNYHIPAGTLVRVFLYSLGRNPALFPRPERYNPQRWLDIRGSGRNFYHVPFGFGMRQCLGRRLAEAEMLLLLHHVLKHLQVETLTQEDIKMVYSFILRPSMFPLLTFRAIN
Nature of the data set: V79 MZh 11B1 cells inhibition test. Format: cell-based. The procedure: Both cell lines were cultured in DMEM^+ containing […] and the antibiotics penicillin and streptomycin (10%) for protection from bacterial contamination. The cells were passaged every 2-3 days after treatment with trypsin/EDTA because the doubling rate was 1-2 days depending on the number of cells. […] When there was further need, freshly thawed cells were employed.
Thereafter, the plate was stored at 37° C. and […] in a CO2 incubator. […] Controls without inhibitor were treated in the same way. The enzyme reactions were quenched by extracting the supernatant with 500 μl of EtOAc. The samples were centrifuged (10,000 g, 2 min), the solvent was removed and evaporated.
It was calculated by determining the percent inhibition for at least 3 different inhibitor concentrations, which must all be in the linear range of the sigmoidal IC50 curve (log C/% inhibition).
The calculation was effected by linear regression. The values determined were used only if they formed a straight line with a reliability of […].
The plate was developed twice with the mobile solvent chloroform:methanol:water (300:20:1). Unlabeled 11-deoxycorticosterone and corticosterone were applied as a reference for the CYP11B1 reaction. For the CYP11B2 reaction, 11-deoxycorticosterone, corticosterone, 18-hydroxycorticosterone and aldosterone were used as references. The detection of the unlabeled references was effected at 260 nm. Subsequently, imaging plates (BAS MS2340, for ^14C samples, Raytest, Straubenhardt, Germany) were exposed to the HPTLC plates for 48 h. The imaging plates were scanned with the phosphoimager system Fuji FLA 3000 (Raytest, Straubenhardt, Germany), and the steroids were quantified.

The mark [1] stands for this setting: hamster fibroblasts which express human CYP11B1, deoxycorticosterone substrate 100 nM, read-out: IC50 V79 11B1 hCYP11B1.

Take `C(=C1/CCc2ccccc21)/c1cccnc1` [Compound 1a, 3-[(E)-2,3-Dihydro-1H-indane-1-ylidenemethyl]pyridine Hydrochloride]: the IC50 – broadly, the concentration needed to halve the response being measured – at human CYP11B1 (setting [1]) amounted to 888 nM.
`C(=C1\CCc2ccccc21)/c1cccnc1.Cl` [Compound 1b, 3-[(Z)-2,3-Dihydro-1H-indane-1-ylidenemethyl]pyridine Hydrochloride]: the IC50 on human CYP11B1 (setting [1]) stood at 86.6 nM.
The same measure, in the same setting: with `C(=C1\CCc2ccccc21)/c1ccncc1` [Compound 2b, 4-[(Z)-2,3-Dihydro-1H-indane-1-ylidenemethyl]pyridine oxalate] the figure was 1320 nM.
As to `C(=C1/CCCc2ccccc21)/c1cccnc1.Cl` [Compound 3a, 3-[(E)-3,4-Dihydronaphthalene-1(2H)-ylidenemethyl]pyridine Hydrochloride], the melting point (as a rule, the temperature of the solid-liquid transition) turned out to be 209 °C. The IC50 on human CYP11B1 (setting [1]) is 715 nM.
In the case of `C(=C1\CCCc2ccccc21)/c1cccnc1.Cl` [Compound 3b, 3-[(Z)-3,4-Dihydronaphthalene-1(2H)-ylidenemethyl]pyridine Hydrochloride], the melting point came to 206 °C. Moreover, the half-maximal inhibitory concentration (IC50) on human CYP11B1 (setting [1]) is 1420 nM.
As for `Fc1ccc2c(c1)CC/C2=C\c1cccnc1` [Compound 5a, 3-[(E)-(5-Fluoro-2,3-dihydro-1H-indane-1-ylidene)methyl]pyridine Hydrochloride], the IC50 on human CYP11B1 (setting [1]) was 311 nM.
In the case of `Fc1ccc2c(c1)CC/C2=C/c1cccnc1` [Compound 5b, 3-[(Z)-(5-Fluoro-2,3-dihydro-1H-indane-1-ylidene)methyl]pyridine Hydrochloride], the IC50 on human CYP11B1 (Table 7: preincubation 1 h, DOC 100 nM, incubation 140 min, read-out: V79MZh11B1 CYP11B1 DOC [IC50]) is 125 nM; on human CYP11B1 (setting [1]), 125 nM.
For the molecule `Fc1ccc2c(c1)CC/C2=C\c1ccncc1` [Compound 6a, 4-[(E)-(5-Fluoro-2,3-dihydro-1H-indane-1-ylidene)methyl]pyridine Hydrochloride], at human CYP11B1 (setting [1]), the IC50 was 380 nM.
Still for that read-out and setting: with `Fc1ccc2c(c1)CC/C2=C/c1ccncc1` [Compound 6b, 4-[(Z)-(5-Fluoro-2,3-dihydro-1H-indane-1-ylidene)methyl]pyridine Hydrochloride] the figure was 257 nM; with `Clc1ccc2c(c1)CC/C2=C\c1cccnc1` [Compound 7a, 3-[(E)-(5-Chloro-2.3-dihydro-1H-indane-1-ylidene)methyl]pyridine Hydrochloride], 1470 nM.
As to `Clc1ccc2c(c1)CC/C2=C/c1cccnc1` [Compound 7b, 3-[(Z)-(5-Chloro-2,3-dihydro-1H-indane-1-ylidene)methyl]pyridine Hydrochloride], at human CYP11B1 (setting [1]), the IC50 was determined as 270 nM.
Same read-out and setting: with `Clc1ccc2c(c1)CC/C2=C\c1ccncc1` [Compound 8a, 4-[(E)-(5-Chloro-2,3-dihydro-1H-indane-1-ylidene)methyl]pyridine Hydrochloride] the figure was 243 nM; with `Brc1ccc2c(c1)CC/C2=C\c1cccnc1` [Compound 9a, 3-[(E)-(5-Bromo-2,3-dihydro-1H-indane-1-ylidene)methyl]pyridine Hydrochloride], 1940 nM; with `Brc1ccc2c(c1)CC/C2=C/c1cccnc1` [Compound 9b, 3-[(Z)-(5-Bromo-2,3-dihydro-1H-indane-1-ylidene)methyl]pyridine Hydrochloride], 320 nM.
As to `Brc1ccc2c(c1)CC/C2=C\c1ccncc1` [Compound 10a, 4-[(E)-(5-Bromo-2,3-dihydro-1H-indane-1-ylidene)methyl]pyridine Hydrochloride], the IC50 at human CYP11B1 (setting [1]) was 948 nM.
For the molecule `COc1ccc2c(c1)CC/C2=C\c1cccnc1` [Compound 11a, 3-[(E)-(5-Methoxy-2,3-dihydro-1H-indane-1-ylidene)methyl]pyridine Hydrochloride], the 50% inhibitory concentration (IC50) at human CYP11B1 (setting [1]) is 1450 nM.
`COc1ccc2c(c1)CC/C2=C/c1cccnc1` [Compound 11b, 3-[(Z)-(5-Methoxy-2,3-dihydro-1H-indane-1-ylidene)methyl]pyridine Hydrochloride]: the IC50 at human CYP11B1 (setting [1]) is 790 nM.
On to `COc1ccc2c(c1)CCC/C2=C\c1cccnc1` [Compound 13a, 3-[(E)-(6-Methoxy-3,4-dihydronaphthalene-1(2H)-ylidene)methyl]pyridine Hydrochloride], for which the IC50 on human CYP11B1 (setting [1]) was found to be 903 nM.
In turn, `COc1ccc2c(c1)CCC/C2=C/c1cccnc1.Cl` [Compound 13b, 3-[(Z)-(6-Methoxy-3,4-dihydronaphthalene-1(2H)-ylidene)methyl]pyridine Hydrochloride] showed a melting point of 151 °C. Besides, at human CYP11B1 (setting [1]), the IC50 stood at 206 nM.
As for `CCOc1ccc2c(c1)CC/C2=C\c1cccnc1` [Compound 19a, 3-[(E)-(5-Ethoxy-2,3-dihydro-1H-indane-1-ylidene)methyl]pyridine Hydrochloride], the IC50 at human CYP11B1 (setting [1]) was 2370 nM.
Consider `CCOc1ccc2c(c1)CC/C2=C/c1cccnc1` [Compound 19b, 3-[(Z)-(5-Ethoxy-2,3-dihydro-1H-indane-1-ylidene)methyl]pyridine Hydrochloride], for which the IC50 at human CYP11B1 (setting [1]) came out at 2700 nM.
The same measure, in the same setting: then `Cc1cccc2c1CC/C2=C\c1cccnc1` [Compound 23a, 3-[(E)-(4-Methyl-2,3-dihydro-1H-indane-1-ylidene)methyl]pyridine Hydrochloride], with 763 nM; and `Fc1cccc2c1CC/C2=C\c1cccnc1` [Compound 24a, 3-[(E)-(4-Fluoro-2,3-dihydro-1H-indane-1-ylidene)methyl]pyridine Hydrochloride], with 774 nM; and `Clc1cccc2c1CC/C2=C\c1cccnc1` [Compound 25a, 3-[(E)-(4-Chloro-2,3-dihydro-1H-indane-1-ylidene)methyl]pyridine Hydrochloride], with 304 nM.
Take `Clc1cccc2c1CC/C2=C/c1cccnc1` [Compound 25b, 3-[(Z)-(4-Chloro-2,3-dihydro-1H-indane-1-ylidene)methyl]pyridine Hydrochloride]: the IC50 on human CYP11B1 (setting [1]) is 657 nM.
In the case of `COc1cccc2c1/C(=C/c1cccnc1)CC2` [Compound 26a, 3-[(E)-(7-Methoxy-2,3-dihydro-1H-indane-1-ylidene)methyl]pyridine Hydrochloride], at human CYP11B1 (setting [1]), the IC50 turned out to be 955 nM.
As for `Fc1ccc2c(c1)CC/C2=C\c1cncnc1` [Compound 28a, 5-[(E)-(5-Fluoro-2,3-dihydro-1H-indane-1-ylidene)methyl]pyrimidine Hydrochloride], the IC50 on human CYP11B1 (setting [1]) was 3180 nM.
For the molecule `Fc1ccc2c(c1)CC/C2=C\c1cccc2cnccc12` [Compound 30a, 5-[(E)-(5-Fluoro-2,3-dihydro-1H-indane-1-ylidene)methyl]isoquinoline Hydrochloride], the IC50 at human CYP11B1 (setting [1]) stood at 1130 nM.
The same measure, in the same setting: with `Fc1ccc2c(c1)CC/C2=C/c1cccc2cnccc12` [Compound 30b, 5-[(Z)-(5-Fluoro-2,3-dihydro-1H-indane-1-ylidene)methyl]isoquinoline Hydrochloride] the figure was 374 nM.
